Experimental findings from US11331020B2 (TRUSTEES OF BOSTON UNIVERSITY, priority 2020, dated 2022) are described below.

In assay [1] the target is T1, NicA2 (Pseudomonas putida, UniProt F8G0P2).
T1 construct: poly-histidine; made in house; host or cells: E. coli BL21 (DE3)
In kind it is biochemical, Pseudomonas putida S16. Conditions: for effect on the response to nicotine: 200 μM nicotine solution added. The method, then:
(§1) Chronoamperometric responses were recorded overtime, with a potential −0.2 V (versus Ag/AgCl). At the beginning of the experiment, 30 μL 1×DPBS was added to the biosensor, followed by an addition of 30 μL nicotine solution at predefined time point. To evaluate the selectivity of the sensor chronoamperometric responses to nicotine were measured in the presence of the common interferents at relevant physiological concentrations in sweat (see e.g., Table 4). Addition of 30 μL 200 μM nicotine solution to 30 μL mixture was performed at a predefined time point and the current was recorded over time. Similar experiments were performed to evaluate the selectivity of the sensor to cotinine. Current was recorded where 30 μL 200 μM nicotine solution was added to 30 μL cotinine solutions.
(§2) Chronoamperometric responses were recorded at −0.2 V vs. a Ag/AgCl reference electrode.

For assay [2], the target named is T2, NicA2 (Pseudomonas putida, UniProt F8G0P2, N462Y/W427Y).
T2 construct: poly-histidine; made in house; host or cells: E. coli BL21 (DE3)
In kind it is biochemical, Pseudomonas putida S16. Conditions: FIG. 17C (N462Y/W427Y mutant), FIG. 10D. The method, then:
as §1, §2

Assay [3] in a line: Activity of NicA2 mutants versus wild type NicA2. In kind it is biochemical. Conditions: compared to wild type and other NicA2 mutants. The text has this:
In some embodiments, the size of the working electrode is in the range of 5-8 π mm^2, or 8-10π mm^2, or 10-12π mm^2, or 12-15π mm^2, or greater than 15π mm^2.

Like-named read-outs stand apart in the source and are kept apart here.

T1 sequence (F8G0P2 39-482): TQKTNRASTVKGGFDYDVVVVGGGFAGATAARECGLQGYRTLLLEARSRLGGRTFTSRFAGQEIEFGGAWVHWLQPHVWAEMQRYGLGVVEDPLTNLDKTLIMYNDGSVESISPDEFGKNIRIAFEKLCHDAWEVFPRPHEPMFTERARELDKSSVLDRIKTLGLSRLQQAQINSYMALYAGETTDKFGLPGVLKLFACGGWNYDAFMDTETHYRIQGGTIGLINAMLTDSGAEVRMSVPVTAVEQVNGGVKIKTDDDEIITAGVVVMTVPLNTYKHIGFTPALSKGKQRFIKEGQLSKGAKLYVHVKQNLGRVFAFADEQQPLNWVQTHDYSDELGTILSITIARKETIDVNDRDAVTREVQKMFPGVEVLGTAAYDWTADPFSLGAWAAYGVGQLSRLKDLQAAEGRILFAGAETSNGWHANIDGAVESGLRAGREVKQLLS

Turning to `CN1C(=O)CC[C@H]1c1cccnc1` [cotinine], the “effect on the response to nicotine” value was “minimally affected the nicotine response” at NicA2 [1] (chronoamperometry) and “minimal effect upon the nicotine response” at NicA2 [1] (chronoamperometry, listed as Cotinine). In addition, the “current produced by NicA2 with the analyte” value at NicA2 [2] is “did not produce a current”.

For `c1cncc(C2=NCCC2)c1` [myosmine], the reduction of signal entry at NicA2 [1] (added during a chronoamperometric experiment with nicotine) is reported as “approximately 50%”. Further, on NicA2 [1] (chronoamperometry, no nicotine), the “response from the substance alone” value is “Minimal responses”.

B1: N462Y/W427Y: mutant NicA2 enzyme, SEQ ID NO: 4 (protein)
chain: MSDKTKTNEGFSRRSFIGSAAVVTAGVAGLGAIDAASATQKTNRASTVKGGFDYDVVVVGGGFAGATAARECGLQGYRTLLLEARSRLGGRTFTSRFAGQEIEFGGAWVHWLQPHVWAEMQRYGLGVVEDPLTNLDKTLIMYNDGSVESISPDEFGKNIRIAFEKLCHDAWEVFPRPHEPMFTERARELDKSSVLDRIKTLGLSRLQQAQINSYMALYAGETTDKFGLPGVLKLFACGGWNYDAFMDTETHYRIQGGTIGLINAMLTDSGAEVRMSVPVTAVEQVNGGVKIKTDDDEIITAGVVVMTVPLNTYKHIGFTPALSKGKQRFIKEGQLSKGAKLYVHVKQNLGRVFAFADEQQPLNWVQTHDYSDELGTILSITIARKETIDVNDRDAVTREVQKMFPGVEVLGTAAYDWTADPFSLGAYAAYGVGQLSRLKDLQAAEGRILFAGAETSNGWHAYIDGAVESGLRAGREVKQLLSLEHHHHHH
Take B1: in assay [3], the “oxidation activity of NicA2 mutant” value was “increased oxidative activity”.
